Data reported in ChEMBL document CHEMBL3853264 (Medchemcomm, 2016).
≈ marks a conversion by molar mass, not a printed value.

Assays:
[1] = Half life in rat at 0.5 mg/kg, iv and 1 mg/kg, po; assay type: ADME, organism-based; settings: in vivo
[2] = Unbound clearance in rat at 0.5 mg/kg, iv and 1 mg/kg, po; assay type: ADME, organism-based; settings: in vivo
[3] = target: Cytochrome P450 2D6 (Homo sapiens, UniProt P10635); assay: Inhibition of CYP2D6 (unknown origin); assay type: ADME
[4] = target: Solute carrier family 22 member 11 (Homo sapiens, UniProt Q9NSA0); assay: Inhibition of OAT4 (unknown origin)
[5] = Drug metabolism in dog assessed as loss of chlorobenzonitrile moiety in presence of glutathione; assay type: ADME, Canis lupus familiaris
[6] = Renal clearance in dog; assay type: ADME, Canis lupus familiaris; settings: in vivo
[7] = system: Rattus norvegicus; assay: Toxicity in rat assessed as increase in mitosis in collecting ducts at 300 mg/kg/day, po measured over 14 days by microscopic analysis; assay type: organism-based; settings: in vivo, 336 h
[8] = Fraction unbound in human plasma; assay type: ADME, cell-free
[9] = system: Rattus norvegicus; assay: Toxicity in rat assessed as hypertrophy/hyperplasia of the urothelium at 300 mg/kg/day, po measured over 14 days by microscopic analysis; assay type: organism-based; settings: in vivo, 336 h
[10] = Drug metabolism in rat assessed as oxidation of chlorophenyl ring; assay type: ADME
[11] = Solubility of the compound at pH 6.5; assay type: physicochemical; settings: buffer
[12] = target: Cytochrome P450 3A4 (Homo sapiens, UniProt P08684); assay: Inhibition of CYP3A4 (unknown origin); assay type: ADME
Chain of Cytochrome P450 3A4 (P08684 whole entry): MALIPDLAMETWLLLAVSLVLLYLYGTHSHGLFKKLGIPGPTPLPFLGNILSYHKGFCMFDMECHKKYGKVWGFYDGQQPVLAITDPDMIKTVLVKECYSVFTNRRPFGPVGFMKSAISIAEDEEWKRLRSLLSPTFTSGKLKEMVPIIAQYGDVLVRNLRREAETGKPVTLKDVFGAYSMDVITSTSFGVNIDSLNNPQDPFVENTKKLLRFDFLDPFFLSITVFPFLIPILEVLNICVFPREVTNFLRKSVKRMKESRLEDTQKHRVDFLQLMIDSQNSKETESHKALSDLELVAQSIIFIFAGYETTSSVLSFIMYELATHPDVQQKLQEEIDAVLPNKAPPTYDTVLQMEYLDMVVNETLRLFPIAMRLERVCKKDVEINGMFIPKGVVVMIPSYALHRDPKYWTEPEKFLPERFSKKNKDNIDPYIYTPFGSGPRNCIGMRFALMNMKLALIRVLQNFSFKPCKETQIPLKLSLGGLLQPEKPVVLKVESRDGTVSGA

[13] = system: Canis familiaris; assay: Hepatotoxicity in female dog assessed as pathological changes at >= 100 mg/kg/day, po measured over 14 days; assay type: toxicity, organism-based, Canis lupus familiaris; settings: in vivo, 336 h
[14] = Fraction unbound in dog plasma; assay type: ADME, cell-free, Canis lupus familiaris
[15] = Average plasma concentration in dog at 30 mg/kg, po administered as single dose measured on day 14; assay type: ADME, organism-based, Canis lupus familiaris; settings: in vivo
[16] = target: Organic anion transporter 3 (Homo sapiens, UniProt Q8TCC7); assay: Inhibition of OAT3 (unknown origin)
Chain of Organic anion transporter 3 (Q8TCC7 whole entry): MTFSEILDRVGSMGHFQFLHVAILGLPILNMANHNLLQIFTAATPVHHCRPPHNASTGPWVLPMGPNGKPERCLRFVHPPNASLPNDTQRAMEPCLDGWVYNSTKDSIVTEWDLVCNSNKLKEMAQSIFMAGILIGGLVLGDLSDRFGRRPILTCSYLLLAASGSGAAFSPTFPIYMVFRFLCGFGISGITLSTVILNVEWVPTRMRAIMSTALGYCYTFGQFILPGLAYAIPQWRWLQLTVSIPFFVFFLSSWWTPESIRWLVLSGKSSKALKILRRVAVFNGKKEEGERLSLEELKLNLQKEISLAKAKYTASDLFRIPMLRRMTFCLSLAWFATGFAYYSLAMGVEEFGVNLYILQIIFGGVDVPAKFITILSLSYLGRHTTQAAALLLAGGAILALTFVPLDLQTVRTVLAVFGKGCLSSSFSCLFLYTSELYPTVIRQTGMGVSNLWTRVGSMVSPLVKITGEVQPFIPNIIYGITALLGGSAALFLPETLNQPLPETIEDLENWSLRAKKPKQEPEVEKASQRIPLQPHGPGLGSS

[17] = Drug excretion in bile of bile duct cannulated rat; assay type: ADME; settings: read-out: Drug excretion
[18] = system: Canis familiaris; assay: Hepatotoxicity in female dog assessed as decrease in alanine aminotransferase levels at >= 100 mg/kg/day, po measured over 14 days; assay type: toxicity, organism-based, Canis lupus familiaris; settings: in vivo, 336 h
[19] = system: Rattus norvegicus; assay: Toxicity in rat assessed as hepatocellular hypertrophy with focal necrosis at 300 mg/kg/day, po measured over 14 days by microscopic analysis; assay type: organism-based; settings: in vivo, 336 h
[20] = Octanol-water partition co-efficient, log D of the compound by shake flask method; assay type: physicochemical
[21] = Unbound Cmax in dog at 30 mg/kg, po administered as single dose measured on day 14; assay type: ADME, organism-based, Canis lupus familiaris; settings: in vivo
[22] = target: Cytochrome P450 2C8 (Homo sapiens, UniProt P10632); assay: Inhibition of CYP2C8 (unknown origin); assay type: ADME
[23] = Fraction unbound in rat plasma; assay type: ADME, cell-free
[24] = Toxicity in po dosed rat measured over 14 days; assay type: organism-based; settings: in vivo
[25] = Volume of distribution at steady state in rat at 0.76 mg/kg, iv and 2.3 mg/kg, po; assay type: ADME, organism-based; settings: in vivo, read-out: Vdss
[26] = target: Solute carrier organic anion transporter family member 2B1 (Homo sapiens, UniProt O94956); assay: Drug uptake assessed as human OATP2B1-mediated drug accumulation by cell-based assay relative to wild type protein; assay type: ADME
Chain of Solute carrier organic anion transporter family member 2B1 (O94956 whole entry): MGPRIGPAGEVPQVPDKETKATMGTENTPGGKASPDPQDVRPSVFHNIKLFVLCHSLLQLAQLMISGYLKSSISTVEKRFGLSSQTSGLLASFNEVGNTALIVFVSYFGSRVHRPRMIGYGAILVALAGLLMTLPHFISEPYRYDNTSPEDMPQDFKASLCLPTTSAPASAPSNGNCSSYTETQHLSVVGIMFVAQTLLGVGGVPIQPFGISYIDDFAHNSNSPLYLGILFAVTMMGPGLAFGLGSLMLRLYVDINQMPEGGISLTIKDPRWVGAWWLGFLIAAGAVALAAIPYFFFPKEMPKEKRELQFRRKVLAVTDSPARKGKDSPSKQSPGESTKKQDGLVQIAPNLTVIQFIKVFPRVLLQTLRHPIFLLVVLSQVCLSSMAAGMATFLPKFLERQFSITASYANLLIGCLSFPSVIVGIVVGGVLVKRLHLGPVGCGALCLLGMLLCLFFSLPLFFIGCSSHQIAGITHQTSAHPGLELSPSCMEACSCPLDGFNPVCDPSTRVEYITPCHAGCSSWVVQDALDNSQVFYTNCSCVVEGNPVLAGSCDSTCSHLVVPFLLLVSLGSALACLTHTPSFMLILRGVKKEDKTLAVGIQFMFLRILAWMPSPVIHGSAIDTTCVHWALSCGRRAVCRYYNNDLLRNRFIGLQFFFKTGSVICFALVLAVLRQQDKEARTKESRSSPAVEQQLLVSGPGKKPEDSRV

[27] = target: Cytochrome P450 2C19 (Homo sapiens, UniProt P33261); assay: Inhibition of CYP2C19 (unknown origin); assay type: ADME
Chain of Cytochrome P450 2C19 (P33261 whole entry): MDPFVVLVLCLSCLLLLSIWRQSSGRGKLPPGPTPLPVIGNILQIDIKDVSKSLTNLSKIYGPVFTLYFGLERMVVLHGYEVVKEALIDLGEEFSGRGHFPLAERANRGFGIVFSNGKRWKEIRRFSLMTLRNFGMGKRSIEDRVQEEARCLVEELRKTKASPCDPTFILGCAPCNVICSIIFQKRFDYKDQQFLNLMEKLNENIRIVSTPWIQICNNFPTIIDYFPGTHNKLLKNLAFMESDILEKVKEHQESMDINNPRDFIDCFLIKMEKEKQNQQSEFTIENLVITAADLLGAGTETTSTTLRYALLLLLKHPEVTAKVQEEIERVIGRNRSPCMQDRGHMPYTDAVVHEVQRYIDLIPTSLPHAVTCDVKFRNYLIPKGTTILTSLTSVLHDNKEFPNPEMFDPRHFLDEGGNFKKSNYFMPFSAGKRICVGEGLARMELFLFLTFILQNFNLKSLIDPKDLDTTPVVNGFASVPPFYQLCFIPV

[28] = Drug metabolism in human hepatocytes assessed as oxidation of chlorophenyl ring; assay type: ADME, cell-based, Hepatocyte
[29] = Intrinsic clearance in rat liver microsomes; assay type: ADME; settings: read-out: CLH
[30] = target: Sodium channel protein type 5 subunit alpha (Homo sapiens, UniProt Q14524); assay: Inhibition of human NaV1.5 expressed in HEK293 cells by patch clamp method; assay type: cell-based
Chain of Sodium channel protein type 5 subunit alpha (Q14524 whole entry): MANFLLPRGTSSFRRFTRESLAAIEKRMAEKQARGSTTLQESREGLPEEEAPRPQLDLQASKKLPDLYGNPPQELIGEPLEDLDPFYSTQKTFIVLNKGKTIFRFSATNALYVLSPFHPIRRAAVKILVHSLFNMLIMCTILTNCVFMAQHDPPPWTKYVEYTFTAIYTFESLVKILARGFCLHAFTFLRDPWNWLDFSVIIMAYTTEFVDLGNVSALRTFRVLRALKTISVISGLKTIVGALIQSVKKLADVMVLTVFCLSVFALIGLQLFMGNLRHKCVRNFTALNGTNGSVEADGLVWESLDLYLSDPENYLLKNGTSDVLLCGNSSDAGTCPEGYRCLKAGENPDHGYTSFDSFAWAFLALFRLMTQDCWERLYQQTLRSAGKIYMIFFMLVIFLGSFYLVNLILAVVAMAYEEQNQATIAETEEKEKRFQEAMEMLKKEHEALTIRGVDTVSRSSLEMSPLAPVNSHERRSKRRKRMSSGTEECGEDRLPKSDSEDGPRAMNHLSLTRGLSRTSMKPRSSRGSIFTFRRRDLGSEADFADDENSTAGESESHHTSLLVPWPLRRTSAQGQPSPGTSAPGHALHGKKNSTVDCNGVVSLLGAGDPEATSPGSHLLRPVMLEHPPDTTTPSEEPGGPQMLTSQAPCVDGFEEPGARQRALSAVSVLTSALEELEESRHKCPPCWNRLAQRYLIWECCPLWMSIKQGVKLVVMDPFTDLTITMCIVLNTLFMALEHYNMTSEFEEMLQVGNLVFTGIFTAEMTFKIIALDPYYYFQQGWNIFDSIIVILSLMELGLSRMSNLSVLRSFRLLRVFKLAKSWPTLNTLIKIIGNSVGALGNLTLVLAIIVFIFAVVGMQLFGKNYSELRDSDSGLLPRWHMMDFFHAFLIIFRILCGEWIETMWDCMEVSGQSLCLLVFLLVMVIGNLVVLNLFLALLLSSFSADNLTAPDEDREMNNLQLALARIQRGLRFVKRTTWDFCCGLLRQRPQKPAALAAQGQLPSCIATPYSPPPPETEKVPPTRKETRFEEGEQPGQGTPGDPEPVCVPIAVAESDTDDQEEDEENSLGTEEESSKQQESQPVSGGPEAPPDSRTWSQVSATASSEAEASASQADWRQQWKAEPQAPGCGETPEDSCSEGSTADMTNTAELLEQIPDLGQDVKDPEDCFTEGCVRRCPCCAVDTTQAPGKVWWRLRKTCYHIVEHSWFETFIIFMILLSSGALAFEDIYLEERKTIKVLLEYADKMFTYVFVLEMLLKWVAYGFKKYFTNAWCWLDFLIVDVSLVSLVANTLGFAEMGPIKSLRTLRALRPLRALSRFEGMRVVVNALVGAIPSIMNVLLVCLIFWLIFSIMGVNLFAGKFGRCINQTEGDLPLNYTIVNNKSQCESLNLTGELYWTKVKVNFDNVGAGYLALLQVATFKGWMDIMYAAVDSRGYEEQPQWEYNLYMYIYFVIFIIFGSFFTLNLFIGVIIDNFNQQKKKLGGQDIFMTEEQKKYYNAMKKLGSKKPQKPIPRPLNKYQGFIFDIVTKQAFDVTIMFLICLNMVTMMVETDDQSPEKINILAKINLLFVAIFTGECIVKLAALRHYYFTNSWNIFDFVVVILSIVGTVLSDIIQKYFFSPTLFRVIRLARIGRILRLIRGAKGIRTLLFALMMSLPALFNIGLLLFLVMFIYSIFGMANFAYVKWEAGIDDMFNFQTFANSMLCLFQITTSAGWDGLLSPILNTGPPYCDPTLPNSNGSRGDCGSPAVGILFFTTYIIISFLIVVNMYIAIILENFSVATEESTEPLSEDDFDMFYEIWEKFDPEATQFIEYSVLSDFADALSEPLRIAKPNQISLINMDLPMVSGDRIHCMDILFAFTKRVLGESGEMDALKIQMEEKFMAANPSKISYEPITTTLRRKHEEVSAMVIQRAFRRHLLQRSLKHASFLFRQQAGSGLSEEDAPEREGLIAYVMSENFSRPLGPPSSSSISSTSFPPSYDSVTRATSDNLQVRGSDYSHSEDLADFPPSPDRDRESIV

[31] = target: Solute carrier organic anion transporter family member 1B1 (Homo sapiens, UniProt Q9Y6L6); assay: Drug uptake assessed as human OATP1B1-mediated drug accumulation by cell-based assay relative to wild type protein; assay type: ADME
Chain of Solute carrier organic anion transporter family member 1B1 (Q9Y6L6 whole entry): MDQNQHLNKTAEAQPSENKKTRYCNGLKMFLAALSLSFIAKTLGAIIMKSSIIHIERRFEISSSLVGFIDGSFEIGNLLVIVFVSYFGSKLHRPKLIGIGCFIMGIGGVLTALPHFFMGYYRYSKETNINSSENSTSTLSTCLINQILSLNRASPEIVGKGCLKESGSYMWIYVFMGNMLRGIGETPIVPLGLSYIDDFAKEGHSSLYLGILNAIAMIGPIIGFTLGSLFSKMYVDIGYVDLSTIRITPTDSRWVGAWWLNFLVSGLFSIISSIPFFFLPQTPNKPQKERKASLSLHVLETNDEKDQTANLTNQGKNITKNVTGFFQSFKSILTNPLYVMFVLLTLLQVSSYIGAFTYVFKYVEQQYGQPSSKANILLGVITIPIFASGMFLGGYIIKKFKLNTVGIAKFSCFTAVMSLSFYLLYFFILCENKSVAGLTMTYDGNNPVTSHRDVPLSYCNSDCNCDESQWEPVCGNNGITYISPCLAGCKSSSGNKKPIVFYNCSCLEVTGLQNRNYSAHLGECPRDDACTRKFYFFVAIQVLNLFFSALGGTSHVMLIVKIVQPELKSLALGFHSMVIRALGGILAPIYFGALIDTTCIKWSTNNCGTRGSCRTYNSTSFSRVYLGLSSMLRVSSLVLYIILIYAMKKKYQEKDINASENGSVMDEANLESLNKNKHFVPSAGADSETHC

[32] = Average plasma concentration in rat at 10 mg/kg, po administered as single dose measured on day 14; assay type: ADME, organism-based; settings: in vivo
[33] = Unbound Cmax in rat at 30 mg/kg, po administered as single dose measured on day 14; assay type: ADME, organism-based; settings: in vivo
[34] = Toxicity in po dosed dog measured assessed as drug tolerance measured over 14 days; assay type: organism-based, Canis lupus familiaris; settings: in vivo, 336 h
[35] = Drug metabolism in human liver microsomes assessed as oxidation of chlorophenyl ring; assay type: ADME
[36] = Average plasma concentration in rat at 30 mg/kg, po administered as single dose measured on day 14; assay type: ADME, organism-based; settings: in vivo
[37] = Drug metabolism in rat assessed as loss of chlorobenzonitrile moiety in presence of glutathione; assay type: ADME
[38] = Mutagenicity in […] by Ames test in absence of […] fraction; assay type: toxicity
[39] = Intrinsic clearance in rat hepatocytes assessed per 10^6 cells; assay type: ADME, cell-based, Hepatocyte; settings: read-out: CLH
[40] = Cytotoxicity against THLE cells; assay type: toxicity, cell-based; settings: human
[41] = system: Canis familiaris; assay: Hepatotoxicity in male dog assessed as pathological changes at >= 30 mg/kg/day, po measured over 14 days; assay type: toxicity, organism-based, Canis lupus familiaris; settings: in vivo, 336 h
[42] = Mutagenicity in […] by Ames test in presence of […] fraction; assay type: toxicity
[43] = Unbound clearance in rat at 0.76 mg/kg, iv and 2.3 mg/kg, po; assay type: ADME, organism-based; settings: in vivo
[44] = Dissociation constant, pKa of the compound; assay type: physicochemical
[45] = system: Rattus norvegicus; assay: Cardiovascular toxicity in rat assessed as decrease in body temperature at 10 mg/kg, po measured over 14 days; assay type: organism-based; settings: in vivo, 336 h
[46] = system: Rattus norvegicus; assay: Cardiovascular toxicity in rat assessed as small biphasic change in blood pressure at 30 to 100 mg/kg, po measured over 14 days; assay type: organism-based; settings: in vivo, 336 h
[47] = target: Sodium channel protein type 9 subunit alpha (Homo sapiens, UniProt Q15858); assay: Inhibition of NaV1.7 (unknown origin) by electrophysiology assay
[48] = Inhibition of GABAA receptor (unknown origin); parameters: species or system Homo sapiens
[49] = system: Rattus norvegicus; assay: Toxicity in rat assessed as mortality at 300 mg/kg/day, po measured over 14 days; assay type: organism-based; settings: in vivo, 336 h
[50] = system: Canis familiaris; assay: Hepatotoxicity in male dog assessed as decrease in alanine aminotransferase levels at >= 30 mg/kg/day, po measured over 14 days; assay type: toxicity, organism-based, Canis lupus familiaris; settings: in vivo, 336 h
[51] = Intrinsic clearance in human liver microsomes; assay type: ADME; settings: read-out: CLH
[52] = Renal clearance in rat; assay type: ADME; settings: in vivo
[53] = Intrinsic clearance in human hepatocytes assessed per 10^6 cells; assay type: ADME, cell-based, Hepatocyte; settings: read-out: CLH
[54] = Drug metabolism in dog assessed as oxidation of chlorophenyl ring; assay type: ADME, Canis lupus familiaris
[55] = Drug metabolism in human hepatocytes assessed as loss of chlorobenzonitrile moiety in presence of glutathione; assay type: ADME, cell-based, Hepatocyte
[56] = Half life in rat at 0.76 mg/kg, iv and 2.3 mg/kg, po; assay type: ADME, organism-based; settings: in vivo
[57] = target: Solute carrier organic anion transporter family member 1B3 (Homo sapiens, UniProt Q9NPD5); assay: Drug uptake assessed as human OATP1B3-mediated drug accumulation by cell-based assay relative to wild type protein; assay type: ADME
[58] = Permeability in RRCK cells; assay type: ADME, cell-based, Canis lupus familiaris, MDCKII-LE; settings: dog, MDCK; read-out: permeability
[59] = Plasma clearance in rat at 0.5 mg/kg, iv and 1 mg/kg, po; assay type: ADME, organism-based
[60] = Oral bioavailability in rat at 1 mg/kg; assay type: ADME, organism-based; settings: in vivo

## N#Cc1ccc(Oc2ccc(S(=O)(=O)Nc3ccc(F)cn3)cc2C#N)cc1Cl
[1]
  half-life: 6.7 h
[2]
  CL free: 95 mL/min/kg
[3]
  IC50: > 30 µM
[4]
  IC50: 14 µM
[5]
  Drug metabolism: Metabolite_Detected
[6]
  CL renal: 0.0001 mL/min/kg
[7]
  Activity: Toxic
[8]
  fraction unbound: 0.0012
[9]
  Activity: Toxic
[10]
  Drug metabolism: Metabolite_Detected
[11]
  solubility: 7.7 µM (≈ 3.3 µg/mL)
[12]
  IC50: 17.5 µM
[13]
  Activity: Non-Toxic
[14]
  fraction unbound: 0.0041
[15]
  Cave: 3980 nM
[16]
  IC50: 0.72 µM
[17]
  dose excreted: < 0.5%
[18]
  Activity: Toxic
[19]
  Activity: Toxic
[20]
  logD: 1.8
[21]
  fCmax: 7.419 µM
[22]
  IC50: 11.9 µM
[23]
  fraction unbound: 0.0021
[24]
  MTD at 336 h: 100 mg/kg
[25]
  Vd: 0.25 L/kg
[26]
  fold change (FC): 1.232
[27]
  IC50: 17.2 µM
[28]
  Drug metabolism: Metabolite_Detected
[29]
  microsomal CLint: < 14 µL/min/mg
[30]
  IC50: > 30 µM
[31]
  fold change (FC): 1.003
[32]
  Cave: 41 nM
[33]
  fCmax: 179 nM
[34]
  Activity: <= 300 mg kg-1
[35]
  Drug metabolism: Metabolite_Detected
[36]
  Cave: 123 nM
[37]
  Drug metabolism: Metabolite_Notdetected
[38]
  Activity: Non-Toxic
[39]
  hepatocyte CLint: 10 µL/min/1e6 cells
[40]
  Activity: 103 µM
[41]
  Activity: Non-Toxic
[42]
  Activity: Non-Toxic
[43]
  CL free: 229 mL/min/kg
[44]
  pKa: 5.8
[45]
  Activity: Toxic
[46]
  Activity: Toxic
[47]
  IC50: > 30 µM
[48]
  Ki: 4.8 µM
[49]
  Activity: Toxic
[50]
  Activity: Toxic
[51]
  microsomal CLint: < 13 µL/min/mg
[52]
  CL renal: 0.0001 mL/min/kg
[53]
  hepatocyte CLint: 23 µL/min/1e6 cells
[54]
  Drug metabolism: Metabolite_Notdetected
[55]
  Drug metabolism: Metabolite_Detected
[56]
  half-life: 7.1 h
[57]
  fold change (FC): 1.067
[58]
  Papp: 16 ×10⁻⁶ cm/s
[59]
  clearance: 0.39 mL/min/kg
[60]
  bioavailability: 100%
